Source: patent US10330670B2, “Therapeutic or prophylactic agent for retinopathy of prematurity, testing method for retinopathy of prematurity, and screening method for therapeutic or prophylactic substance for retinopathy of prematurity” (TOKYO UNIVERSITY OF AGRICULTURE AND TECHNOLOGY, priority 2012, dated 2019)
“Also recorded” adds a separate entry of the source.

Key:
[1] = system: retinal neovascularization; assay: Influence of cromolyn on retinal neovascularization in oxygen-induced ROP model mice; assay type: in vivo; settings: eyes on P17
From the text: As have been reported before (Invest. Ophthalmol. Vis. Sci., 35, 101-111 (1994), etc.), for the +/+ mice, +/W^sh mice, and W^sh/W^sh mice, respectively, neonatal mice were placed in a closed chamber containing 75 v/v % O2 together with their mother for lactation on P7, and this state was maintained for 5 days (P7-P12). Subsequently, this state was continued for further 5 days (P12-P17) in the normal oxygen environment (21 v/v % O2) for induction of oxygen-induced retinopathy (OIR) for use as experimental ROP models. The control mice were raised in the normal oxygen environment (indoor environment, 25° C., 21 v/v % O2. The same applies for the description of Examples.) throughout the test period. Note that the symbol “P”, which refers to a date, herein denotes that the date is a postnatal date, and “P7”, for example, refers to a 7th postnatal date. On P17, eyes were collected from the mice with ROP, fixed with Davidson's fixative overnight, and then embedded with paraffin. Paraffin-embedded serial sections axially sectioned at 6 μm were obtained, stained with HE, images were taken at the magnification 20, and the number of nuclei of the endothelial cells on the side of the vitreous body of the internal limiting membrane was counted. In the immunohistochemical test, the sections were subjected to incubation at 4° C. overnight together with anti-PECAM-1 antibody (a product of Santa Cruz Biotechnology, Inc.) having been diluted at 1:100 (in capacity ratio). To examine an influence in various states of different oxygen concentration, mice for use in the tests were raised in a period from P0 to P17 according to the schedule in which the normal oxygen environment was used in the period P0-P7 (21 v/v % oxygen), the high oxygen concentration environment in the period P7-P12 (75 v/v % oxygen), and the normal oxygen environment in the period P12-P17. On P7 and P12, the oxygen concentration environment was replaced. The neonatal mice of +/+ mice and the W^sh/W^sh mice were divided into three groups, and cromolyn (a product of Sigma Aldrich Corporation) dissolved in phosphate buffered saline (PBS) was injected to the mice at the concentration of 50 mg/kg/20 μL intraperitoneally every day. PBS was administered to the control group at the same volume. Administration methods of the agent for the respective groups were as illustrated in FIG. 5. Specifically, for the first group, cromolyn was administered to the neonatal mice from P6 to P16. […] Subsequently, similarly to Reference Example 1, the number of nuclei of the endothelial cell was counted after staining the ocular sections by HE, and thereby influences of cromolyn on the retinal neovascularization in the +/+ and W^sh/W^sh neonatal mice was evaluated in the similar manner as Reference Example 1.

[2] = system: human mast cell strain HMC-1; assay: Degranulation of mast cells induced by variation of oxygen concentration, β-hexosaminidase release; assay type: cell-based; settings: 75% O2 24 hours then 20% O2 12 hours, p<0.05
From the text: It has been known that human mast cell strain HMC-1 is a cell strain derived from leukemia, that it has a characteristic as a mast cell, and that it includes β-hexosaminidase in its granules. With reference to a previous report (European Journal of Immunology, Vol. 29, 2645-2649 (1999)), HMC-1 cells were suspended in an α-MEM culture medium to which 10% (v/v) fetal calf serum and a usual dose of antibiotic had been added for preparation of a mast cell suspension with a cell concentration of 5×10^5 cells/ml. Throughout the test period including the period in the high oxygen concentration environment, all the cells were subjected to an environment of 5% (v/v) CO2, 37° C. as the cultivation condition other than the oxygen concentration.
The mast cell suspension was dispensed on a 96-well plate at 4×10^5 cells/well. Cromolyn and each of the seven candidate substances were added to obtain the following concentrations. As controls (media) to which the agent was not added and as non-treated examples to which the marker substance release induction process was not carried out, wells to which neither cromolyn nor the candidate substances was added were set.
The marker substance (β-hexosaminidase) release induction process and the step for contact with the mast cells HMC-1 that had been subjected to the marker substance release induction process were performed by retaining the 96-well plate in the high oxygen concentration environment (75 v/v % oxygen) for 24 hours and in the normal oxygen environment (20 v/v % oxygen) for 12 hours. For the non-treated example, the 96-well plate was retained in the normal oxygen environment (20 v/v % oxygen) for 24 hours and further retained in the normal oxygen environment for 12 hours.
The detection and measurement of the marker substance (β-hexosaminidase) that had been released by degranulation of the mast cells in the contacting step were carried out by a previously reported method (Eur. J. Immunol. 19 (1989) 2251-2256). To put it briefly, the step was carried out in the following manner. After having collecting the supernatant from the respective wells after the contacting step, the pellets (cells) were dissolved in a 0.5% triton X-100-containing α-minimal essential medium (α-MEM: a product of Gibco) at the same volume. In the respective wells of the 96-well plate, 5 μl supernatant or cell lysates were mixed with a 50 μl substrate solution (1.3 mg/ml p-nitrophenyl-N-acetyl-β-D-glucosamine;
pH 4.5 in 100 mM sodium citrate). After incubation at 37° C. for 60 minutes, 150 μl, 200 mM solution of glycine (pH 10.7) was added, and the reaction was stopped. The absorbance was measured at 414 nm. The (%) of the released marker substance (β-hexosaminidase) was calculated according to the following expression; OD(supernatant)/(OD(supernatant).+OD(pellet))×100.
The test was performed by three-sample test, an average and standard deviation were calculated on the basis of the measurement results for statistic analysis by ANOVA+ Tukey's test.

[3] = system: retinal neovascularization; assay: Influence of nafamostat mesilate (NM) on retinal neovascularization in ROP model mice; assay type: in vivo; settings: 1 mg/kg intraperitoneally every day P12-P17
Procedure: For the ROP models, the BMCMC-injected W^sh/W^sh mice produced in Reference Example 2 (administered by an amount of 1×10^6 cells/20 μL) were used, and W^sh/W^sh mice to which saline was administered by the same volume were used as the control group. The oxygen concentration for the period P0-P17 was replaced by the same schedule as Example 1 (see FIG. 7). 1 mg/kg/20 μl NM dissolved in saline or saline was injected to the mice intraperitoneally in the period P12-P17 every day. On P17, the mice were slaughtered and eyes are collected, and evaluation of neovascularization was performed in the similar manner as Example 1. The results are illustrated in FIG. 8. In FIG. 8 the sign “*” denotes P<0.05 (compared with the number of nuclei of the endothelial cells of the vessels of the control mice).

Compound: O=C(O)c1cc(=O)c2c(OCC(O)COc3cccc4oc(C(=O)O)cc(=O)c34)cccc2o1 [cromolyn, cromoglycic acid]
- retinal neovascularization (number of nuclei of the endothelial cell, HE-stained ocular sections) ([1]; +/+ mice, first group: 50 mg/kg intraperitoneally every day P6-P16): a level as low as that in the W^sh/W^sh mice; also recorded: decreased pathological neovascularization
- retinal neovascularization (number of nuclei of the endothelial cell, HE-stained ocular sections) ([1]; +/+ mice, third group: 50 mg/kg intraperitoneally every day P11-P16): a level as low as that in the W^sh/W^sh mice; also recorded: significantly small; also recorded: less than those in the W^sh/W^sh mice
- retinal neovascularization (number of nuclei of the endothelial cell, HE-stained ocular sections) ([1]; second group: 50 mg/kg intraperitoneally every day P6-P11 (high oxygen period)): did not influence; also recorded: no effect of inhibition
- retinal neovascularization (number of nuclei of the endothelial cell, HE-stained ocular sections) ([1]; second group: 50 mg/kg intraperitoneally every day P6-P11 (high oxygen period), listed as Cromolyn): did not influence
- degranulation (ratio of released β-hexosaminidase) compared with controls (media) ([2]; 10 ng/ml): inhibited the degranulation

Compound: Cc1cccn2c(=O)c(-c3nnn[nH]3)cnc12 [pemirolast]
- degranulation (ratio of released β-hexosaminidase) compared with controls (media) ([2]; 10 nM pemirolast): inhibited the degranulation

Compound: CC(C)c1ccc2oc3nc(N)c(C(=O)O)cc3c(=O)c2c1 [amlexanox]
- degranulation (ratio of released β-hexosaminidase) compared with controls (media) ([2]; 1 μM amlexanox): inhibited the degranulation

Compound: NC1=NCC2c3ccccc3Cc3ccccc3N12 (stereo not drawn) [epinastine]
- degranulation (ratio of released β-hexosaminidase) compared with controls (media) ([2]; 1 ng/ml): inhibited the degranulation

Compound: C[C@@H]1CN([C@H]2CC[C@](C#N)(c3ccc(F)cc3)CC2)CC[C@]1(C(=O)O)c1ccccc1 [levocabastine]
- degranulation (ratio of released β-hexosaminidase) compared with controls (media) ([2]; 10 nM levocabastine): inhibited the degranulation

Compound: N=C(N)c1ccc2cc(OC(=O)c3ccc(N=C(N)N)cc3)ccc2c1 [NM, nafamostat mesilate]
- retinal neovascularization (neovascular nuclei) ([3]; +/+ mice with induced ROP): inhibited retinal neovascularization
- retinal neovascularization (neovascular nuclei) ([3]; BMCMC-injected W^sh/W^sh mice with induced ROP): inhibited retinal neovascularization

Compound: CCOCC(O)COc1ccc(NC(=O)CC[S+](C)C)cc1 (stereo not drawn) [suplatast]
- degranulation (ratio of released β-hexosaminidase) compared with controls (media) ([2]; 10 μM suplatast): inhibited the degranulation
